The values below come from US5605901A, “Indane derivatives, processes for preparing the same and synthetic intermediate of the same” (Tanabe Seiyaku Co., Ltd., priority 1993, dated 1997).

The first assay is described as follows: Action of protecting mouse from death induced by endotoxin. As to conditions: 100 mg/kg orally, 30 min before endotoxin 100 mg/10 ml/kg i.p.; determined when control survival became 20 (about 20 hours). The format is in vivo, mouse (ddy strain). As to the method:
(Action of Protecting Mouse from Death Induced by Endotoxin)
To ddy strain male mice (one group: 10 mice) which had fasted for about 24 hours, each test sample dissolved or suspended in a 0.25% sodium carboxymethyl cellulose (CMC) aqueous solution was orally administered (100 mg/kg). After 30 minutes, 100 mg/10 ml/kg of endotoxin (lipopoly-saccharide) derived from Escherichia coli dissolved in physiological saline was administered intraperitoneally. When the survival rate of the control group to which the CMC aqueous solution had been orally administered became 20 (about 20 hours after administration of endotoxin), the survival rates of the groups to which the test samples had been administered were determined.
As to `CCCC(=O)NC1Cc2ccc(C3=NNC(=O)CC3)cc2C1` (stereo not drawn) [Example 11, 2-butyrylamino-5-[4,5-dihydropyridazin-3(2H)-on-6-yl]indane], the Survival rate worked out at 100%.
The same measure, in the same setting: the figure for `CCC(=O)NC1Cc2ccc(C3=NNC(=O)CC3)cc2C1` (stereo not drawn) [Example 12] is 90%.
On the same count and under the same terms, to `O=C1CCC(c2ccc3c(c2)CC(NC(=O)c2cccnc2)C3)=NN1` (stereo not drawn) [Example 18] belongs 80%; to `O=C1CCC(c2ccc3c(c2)CC(NC(=O)c2cnccn2)C3)=NN1` (stereo not drawn) [Example 22], 70%; to `O=C1CCC(c2ccc3c(c2)CC(NC(=O)c2ccccn2)C3)=NN1` (stereo not drawn) [Example 25], 80%.
Same read-out and setting: the figure for `CCCN(C(=O)OCC(C)C)C1Cc2ccc(C3=NNC(=O)CC3)cc2C1` (stereo not drawn) [Example 35, 2-(N-propyl-N-isobutoxycarbonylamino)-5-[4,5-dihydropyridazin-3(2H)-on-6-yl]indane] is 80%.
Consider `CCCN(C(=O)OCc1ccccc1)C1Cc2ccc(C3=NNC(=O)CC3)cc2C1` (stereo not drawn) [Example 37], for which the Survival rate turned out to be 60%.

Another assay is described as follows: Action on rat glomerular nephritis (nephrotoxic serum-induced; protein excretion in urine). As to conditions: po, 30 mg/kg/10 ml orally twice a day for 8 days, NTS-induced nephritis, 24 hours urine collected after 7 days, read-out: Inhibition rate of excretion of protein in urine. The format is in vivo, rat (WKY strain). As to the method: (Action on Rat Glomerular Nephritis)
Rabbits were immunized several times with a renal glomerular basement membrane fraction obtained from WKY strain rats and an adjuvant. Thereafter, blood was collected to obtain a nephrotoxic serum (NTS). This NTS was diluted by 50 times with physiological saline, and the diluted NTS was once administered intravenously to male WKY rats of 8 weeks old in a dose of 2.5 ml per 1 kg of body weight to induce nephritis. In normal group of rats, the same volume of physiological saline was intravenously administered.
In the experiment, one group consisted of 6 rats, and each compound to be tested was suspended in water with small amount of Tween 80 (trade name, produced by Nacalai Tesque Co.), and was orally administered to the test group of rats at a dose of 30 mg/kg/10 ml twice a day for 8 days. In normal group and control group of rats, the same volume of water was orally administered instead of the test compound. After 7 days, the rats were placed in metabolic cages and urine was collected for 24 hours. Concentrations of protein in urine were measured by the sulfosalicylic acid method to determine amounts of protein excreted in the urine (mg/day). The inhibition rate of excretion of protein were calculated by the following equation. [formula]
Regarding `CCCC(=O)NC1Cc2ccc(-c3ccc(=O)[nH]n3)cc2C1` (stereo not drawn) [Example 40, 2-butyrylamino-5-[pyridazin-3(2H)-on-6-yl]indane], the inhibition in vivo at 30 mg/kg is 72.4%.
On the same count and under the same terms, the figure for `CCCOC(=O)NC1Cc2ccc(-c3ccc(=O)[nH]n3)cc2C1` (stereo not drawn) [Example 48] is 60.3%.
On the same count and under the same terms, the figure for `O=C(NCC1Cc2ccc(-c3ccc(=O)[nH]n3)cc2C1)c1cccnc1` (stereo not drawn) [Example 60] is 59.5%.
Regarding `C=CC(=O)NCCCCC1Cc2ccc(-c3ccc(=O)[nH]n3)cc2C1` (stereo not drawn) [Example 63], the inhibition in vivo at 30 mg/kg stood at 61.6%.
The same measure, in the same setting: the figure for `C=CC(=O)NCCC1Cc2ccc(-c3ccc(=O)[nH]n3)cc2C1` (stereo not drawn) [Example 105] is 60.2%; for `C=CC(=O)NCCCC1Cc2ccc(-c3ccc(=O)[nH]n3)cc2C1` (stereo not drawn) [Example 106] it is 81%; for `O=C(NCCC1Cc2ccc(-c3ccc(=O)[nH]n3)cc2C1)c1ccncc1` (stereo not drawn) [Example 109] it is 67.4%.
Consider `O=C(NCCC1Cc2ccc(-c3ccc(=O)[nH]n3)cc2C1)c1cccnc1` (stereo not drawn) [Example 110], for which the inhibition in vivo at 30 mg/kg worked out at 91.8%.
Same read-out and setting: the figure for `Cc1ncccc1C(=O)NCCC1Cc2ccc(-c3ccc(=O)[nH]n3)cc2C1` (stereo not drawn) [Example 127] is 93%; for `Nc1ncccc1C(=O)NCCC1Cc2ccc(-c3ccc(=O)[nH]n3)cc2C1` (stereo not drawn) [Example 129] it is 98.9%; for `O=C1CCC(c2ccc3c(c2)CC(CCNC(=O)c2cccnc2)C3)=NN1` (stereo not drawn) [Example 148] it is 88.9%.
